In PMC6009961, “Novel 1-(2-pyrimidin-2-yl)piperazine derivatives as selective monoamine oxidase (MAO)-A inhibitors” (Journal of Enzyme Inhibition and Medicinal Chemistry, 2017):
Entries after “also recorded” stand apart in the source; their conditions may differ.

Key:
Assay type in all cases: biochemical
human recombinant MAO-B = target: T1, human recombinant MAO-B (Homo sapiens, UniProt P27338); assay: MAO activity assay, fluorimetric, kynuramine substrate (MAO-B)
T1 construct: purchased Sigma-Aldrich Chemicals (St. Louis, MO)
T1 sequence (P27338 1-520): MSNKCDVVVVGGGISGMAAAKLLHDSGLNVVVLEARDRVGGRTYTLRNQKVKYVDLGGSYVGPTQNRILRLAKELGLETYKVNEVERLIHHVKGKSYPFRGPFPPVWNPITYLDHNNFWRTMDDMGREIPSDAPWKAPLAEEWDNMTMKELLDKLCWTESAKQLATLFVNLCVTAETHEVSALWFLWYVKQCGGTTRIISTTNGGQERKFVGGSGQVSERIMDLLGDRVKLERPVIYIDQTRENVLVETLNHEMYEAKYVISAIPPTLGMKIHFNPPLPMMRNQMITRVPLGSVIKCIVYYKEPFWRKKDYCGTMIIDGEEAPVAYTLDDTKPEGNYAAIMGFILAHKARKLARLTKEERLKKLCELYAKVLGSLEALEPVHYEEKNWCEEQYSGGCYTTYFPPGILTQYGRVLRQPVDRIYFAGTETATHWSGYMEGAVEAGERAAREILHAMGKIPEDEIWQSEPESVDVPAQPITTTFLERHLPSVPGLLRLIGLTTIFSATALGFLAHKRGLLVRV

MAO-A enzyme [1] = target: T2, MAO-A enzyme (Homo sapiens, UniProt P21397); assay: MAO activity assay, fluorimetric, kynuramine substrate (MAO-A); settings: for MAO-A versus MAO-B selectivity: from inhibition rates at 10^−4 M
T2 construct: purchased Sigma-Aldrich Chemicals (St. Louis, MO)
T2 sequence (P21397 1-527): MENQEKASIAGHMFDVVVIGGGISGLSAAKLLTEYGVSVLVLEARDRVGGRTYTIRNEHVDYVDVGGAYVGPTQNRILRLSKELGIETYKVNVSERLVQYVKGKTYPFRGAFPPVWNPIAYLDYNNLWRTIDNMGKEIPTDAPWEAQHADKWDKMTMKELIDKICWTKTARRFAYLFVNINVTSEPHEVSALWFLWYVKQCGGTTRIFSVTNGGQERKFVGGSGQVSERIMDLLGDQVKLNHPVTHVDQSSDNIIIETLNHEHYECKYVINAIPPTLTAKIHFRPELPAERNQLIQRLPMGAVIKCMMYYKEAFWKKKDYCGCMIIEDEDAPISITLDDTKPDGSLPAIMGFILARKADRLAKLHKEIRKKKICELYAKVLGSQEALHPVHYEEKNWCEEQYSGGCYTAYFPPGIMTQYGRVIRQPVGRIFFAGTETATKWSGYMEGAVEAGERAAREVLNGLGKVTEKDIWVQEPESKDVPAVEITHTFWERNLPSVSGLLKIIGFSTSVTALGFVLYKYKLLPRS

MAO-A enzyme [2] = target: T2, MAO-A enzyme; assay: MAO-A enzyme kinetics (Lineweaver-Burk plots)
Protocol: The nature of MAO-A inhibition, caused by this compound, was investigated by the graphical analysis of steady-state inhibition data.
Figure 2. […] Substrate (kynuramine) concentrations used: 40, 20, 10, 5, 2.5 and 1.25 μM. 1/V: 1/velocity of reaction [1/(nmoles/min/mg protein)], 1/S: 1/substrate concentration (1/μM).
The same materials were used in MAO enzyme kinetic assay. The compound 2e was prepared at IC50 concentration and then added to the wells (100 µL/well). Stock solution (25 mM) of kynuramine was diluted to final concentrations of 40, 20, 10, 5, 2.5 and 1.25 µM and then added to the wells (50 µL/well). After MAO-A enzyme was added to the plate (50 µL/well), incubation period at 37 °C for 20 min was started. The plate was read at 310/340 nm excitation/emission wavelength pair[31]. Control measurement without inhibitor was also determined simultaneously. The results were analyzed in Lineweaver–Burk plots using Microsoft Office Excel 2013.

SMILES | IC50 (human recombinant MAO-B) [mM] | MAO B inhibition % (human recombinant MAO-B; 10^−3 M) [%] | MAO B inhibition % (human recombinant MAO-B; 10^−4 M) [%] | IC50 (MAO-A enzyme [1]) [mM] | MAO-A inhibition % (MAO-A enzyme [1]; 10^−3 M) [%] | MAO-A inhibition % (MAO-A enzyme [1]; 10^−4 M) [%] | MAO-A inhibition % (MAO-A enzyme [1]; 10^−5 M) [%] | MAO-A inhibition % (MAO-A enzyme [1]; 10^−6 M) [%] | MAO-A inhibition % (MAO-A enzyme [1]; 10^−7 M) [%] | MAO-A inhibition % (MAO-A enzyme [1]; 10^−8 M) [%] | MAO-A inhibition % (MAO-A enzyme [1]; 10^−9 M) [%] | MAO-A versus MAO-B selectivity (MAO-A enzyme [1]) | nature of MAO-A inhibition (MAO-A enzyme [2]; Lineweaver–Burk plots, kynuramine 40-1.25 μM) | Vmax (MAO-A enzyme [2]; nonlinear regression, MAO-A, kynuramine)
CN1CCN(C(=S)SCC(=O)N2CCN(c3ncccn3)CC2)CC1 [Compound 2a, 2-[4-(Pyrimidin-2-yl)piperazin-1-yl]-2-oxoethyl 4-methylpiperazine-1-carbodithioate] | > 1 | 10.23 ± 0.31 | 5.37 ± 0.22 | > 1 | 12.84 ± 0.59 | 7.33 ± 0.19 | – | – | – | – | – | – | – | –
O=C(CSC(=S)N1CCN(C2CCCCC2)CC1)N1CCN(c2ncccn2)CC1 [Compound 2e, 2-[4-(Pyrimidin-2-yl)piperazin-1-yl]-2-oxoethyl 4-cyclohexylpiperazine-1-carbodithioate] | > 1 | 12.60 ± 0.45 | 5.22 ± 0.18 | > 1 | 16.75 ± 0.42 | 5.90 ± 0.15 | – | – | – | – | – | – | – | –
CN(C)CCN1CCN(C(=S)SCC(=O)N2CCN(c3ncccn3)CC2)CC1 [Compound 2d, 2-[4-(Pyrimidin-2-yl)piperazin-1-yl]-2-oxoethyl 4-(2-(dimethylamino)ethyl)piperazine-1-carbodithioate] | > 1 | 14.37 ± 0.58 | 8.40 ± 0.23 | > 1 | 18.74 ± 0.52 | 7.39 ± 0.30 | – | – | – | – | – | – | – | –
O=C(CSC(=S)N1CCN(c2ccccc2)CC1)N1CCN(c2ncccn2)CC1 [Compound 2f, 2-[4-(Pyrimidin-2-yl)piperazin-1-yl]-2-oxoethyl 4-phenylpiperazine-1-carbodithioate] | > 0.1 | – | 31.15 ± 0.67 | > 1 | 33.33 ± 1.30 | 31.25 ± 0.88 | – | – | – | – | – | – | – | –
O=C(CSC(=S)N1CCN(C(c2ccccc2)c2ccccc2)CC1)N1CCN(c2ncccn2)CC1 [Compound 2m, 2-[4-(Pyrimidin-2-yl)piperazin-1-yl]-2-oxoethyl 4-benzhydrylpiperazine-1-carbodithioate] | > 0.1 | – | 40.00 ± 0.99 | 0.0241 | – | – | 33.65 ± 0.93 | 28.16 ± 0.87 | 21.88 ± 0.74 | 15.77 ± 0.68 | 10.62 ± 0.41 | selective MAO-A inhibitory activity; also recorded: selective MAO-A enzyme inhibitors | – | –
O=C(CSC(=S)N1CCN(c2ccc([N+](=O)[O-])cc2)CC1)N1CCN(c2ncccn2)CC1 [Compound 2j, 2-[4-(Pyrimidin-2-yl)piperazin-1-yl]-2-oxoethyl 4-(4-nitrophenyl)piperazine-1-carbodithioate] | > 0.1 | – | 40.98 ± 0.94 | 0.0231 | – | – | 42.45 ± 1.18 | 29.70 ± 0.72 | 20.19 ± 0.64 | 16.05 ± 0.40 | 11.53 ± 0.29 | selective MAO-A inhibitory activity; also recorded: selective MAO-A enzyme inhibitors | mix-typed inhibitor | 5.34
CCN1CCN(C(=S)SCC(=O)N2CCN(c3ncccn3)CC2)CC1 [Compound 2b, 2-[4-(Pyrimidin-2-yl)piperazin-1-yl]-2-oxoethyl 4-ethylpiperazine-1-carbodithioate] | > 1 | 10.08 ± 0.42 | 5.65 ± 0.14 | > 1 | 11.52 ± 0.38 | 6.86 ± 0.21 | – | – | – | – | – | – | – | –
Cc1ccc(N2CCN(C(=S)SCC(=O)N3CCN(c4ncccn4)CC3)CC2)cc1 [Compound 2g, 2-[4-(Pyrimidin-2-yl)piperazin-1-yl]-2-oxoethyl 4-(p-tolyl)piperazine-1-carbodithioate] | > 1 | 18.20 ± 0.82 | 10.76 ± 0.33 | > 1 | 37.50 ± 1.42 | 33.33 ± 0.99 | – | – | – | – | – | – | – | –
O=C(CSC(=S)N1CCN(c2ccc(Cl)cc2)CC1)N1CCN(c2ncccn2)CC1 [Compound 2h, 2-[4-(Pyrimidin-2-yl)piperazin-1-yl]-2-oxoethyl 4-(4-chlorophenyl)piperazine-1-carbodithioate] | > 1 | 40.98 ± 1.20 | 31.15 ± 1.07 | > 1 | 13.45 ± 0.38 | 6.70 ± 0.22 | – | – | – | – | – | – | – | –
Cc1ccc(CN2CCN(C(=S)SCC(=O)N3CCN(c4ncccn4)CC3)CC2)cc1 [Compound 2l, 2-[4-(Pyrimidin-2-yl)piperazin-1-yl]-2-oxoethyl 4-(4-methylbenzyl)piperazine-1-carbodithioate] | – | – | 15.00 ± 0.68 | > 1 | 32.31 ± 0.86 | 15.38 ± 0.61 | – | – | – | – | – | – | – | –
O=C(CSC(=S)N1CCN(c2ccc(F)cc2)CC1)N1CCN(c2ncccn2)CC1 [Compound 2i, 2-[4-(Pyrimidin-2-yl)piperazin-1-yl]-2-oxoethyl 4-(4-fluorophenyl)piperazine-1-carbodithioate] | > 1 | 44.26 ± 1.13 | 27.86 ± 0.66 | > 0.1 | – | 39.58 ± 0.95 | – | – | – | – | – | – | – | –
O=C(CSC(=S)N1CCN(CCO)CC1)N1CCN(c2ncccn2)CC1 [Compound 2c, 2-[4-(Pyrimidin-2-yl)piperazin-1-yl]-2-oxoethyl 4-(2-hydroxyethyl)piperazine-1-carbodithioate] | > 1 | 12.30 ± 0.48 | 7.39 ± 0.25 | > 1 | 15.88 ± 0.55 | 9.27 ± 0.27 | – | – | – | – | – | – | – | –
O=C(CSC(=S)N1CCN(c2ncccn2)CC1)N1CCN(c2ncccn2)CC1 [Compound 2n, 2-[4-(Pyrimidin-2-yl)piperazin-1-yl]-2-oxoethyl 4-(pyrimidin-2-yl)piperazine-1-carbodithioate] | > 1 | 29.51 ± 0.74 | 22.95 ± 0.69 | > 1 | 31.25 ± 0.94 | 25.00 ± 0.62 | – | – | – | – | – | – | – | –
O=C(CSC(=S)N1CCN(Cc2ccccc2)CC1)N1CCN(c2ncccn2)CC1 [Compound 2k] | > 1 | 13.08 ± 0.56 | 5.87 ± 0.22 | > 1 | 19.81 ± 0.59 | 6.15 ± 0.18 | – | – | – | – | – | – | – | –
